One test concerns Pythium ultimum. In words: Pythium ultimum / liquid culture (seedling damping off). As to conditions: Globisporangium ultimum, liquid culture in PDB, 24° C., 2-3 days after application, read-out: inhibit fungal infestation (inhibition of growth determined photometrically). It is filed as cell-based.
A further test has as its system Plasmopara viticola. Description: Plasmopara viticola / grape / leaf disc preventative. It is filed as in vivo. As to conditions: foliar, grape vine leaf disks, inoculated 1 day after application, assessed 6-8 days after application, read-out: inhibit fungal infestation (percent disease control compared to untreated).
The next test concerns Phytophthora infestans. Description: whole plant or invertebrate. It is filed as in vivo. As to conditions: in Solanum lycopersicum, foliar, read-out: inhibit fungal infestation (percent disease control compared to untreated).
In test [1] the test system is Blumeria qraminis f. sp. tritici (Erysiphe qraminis f. sp. tritici). In words: Blumeria graminis f. sp. tritici / wheat / leaf disc preventative (powdery mildew on wheat). It is filed as in vivo. The settings on record: foliar, wheat leaf segments cv. Kanzler, inoculated 1 day after application, assessed 6-8 days after application, read-out: inhibit fungal infestation (percent disease control compared to untreated).

Our source for the inhibition values is US20140045890A1, “NOVEL COMPOUNDS” (SYNGENTA PARTICIPATIONS AG, priority 2011, published 2014).

As for `C#Cc1cnc2ccc(OC(SC)C(=O)NC(C)(C)c3ccncc3)cc2c1` (stereo not shown) [Compound 35], the inhibition at 200 ppm in the test on Pythium ultimum is at least 80%.
On to `C#Cc1cnc2c(C)cc(OC(SC)C(=O)NC(C)(C)c3ccncc3)cc2c1` (stereo not shown) [Compound 36], for which the inhibition at 200 ppm in the test on Pythium ultimum, with Plasmopara viticola and in the test on Phytophthora infestans was at least 80% throughout.
`C#Cc1cnc2ccc(OC(SC)C(=O)NC3(c4ccccn4)CC3)cc2c1` (stereo not shown) [Compound 37]: the inhibition at 200 ppm (with Pythium ultimum; in test [1]; in the test on Phytophthora infestans) was at least 80% in each case.
Consider `C#Cc1cnc2c(C)cc(OC(SC)C(=O)NC3(c4ccccn4)CC3)cc2c1` (stereo not shown) [Compound 38], for which the inhibition at 200 ppm in the test on Pythium ultimum and with Plasmopara viticola was at least 80% in each case.
In the case of `C#Cc1cnc2ccc(OC(SC)C(=O)NC(C)(C)c3cc(C(=O)OC)on3)cc2c1` (stereo not shown) [Compound 40], the inhibition at 200 ppm in the test on Pythium ultimum and with Phytophthora infestans was at least 80% throughout.
Consider `C#Cc1cnc2c(C)cc(OC(SC)C(=O)NC(C)(C)c3cc(C(=O)OC)on3)cc2c1` (stereo not shown) [Compound 41], for which the inhibition at 200 ppm in the test with Pythium ultimum and in the test on Plasmopara viticola was at least 80% each time.
With `C#Cc1cnc2c(C)cc(OC(SC)C(=O)NC(C)(C)c3cc(CO)on3)cc2c1` (stereo not shown) [Compound 43], the inhibition at 200 ppm in the test on Pythium ultimum, in the test with Plasmopara viticola and with Phytophthora infestans was at least 80% in each case.
Regarding `C#Cc1cnc2ccc(OC(SC)C(=O)NC(C)(C)c3nocc3I)cc2c1` (stereo not shown) [Compound 49], the inhibition at 200 ppm in the test on Pythium ultimum, in the test on Plasmopara viticola and with Phytophthora infestans was at least 80% throughout.
Regarding `C#Cc1cnc2ccc(OC(SC)C(=O)NC(C)(C)c3noc4ccccc34)cc2c1` (stereo not shown) [Compound 50], the inhibition at 200 ppm in the test with Pythium ultimum and in the test with Plasmopara viticola was at least 80% each time.
Consider `C#Cc1cnc2ccc(OC(SC)C(=O)NC(C)(C)c3cc(COC)on3)cc2c1` (stereo not shown) [Compound 52], for which the inhibition at 200 ppm (in the test with Pythium ultimum; in test [1]; in the test on Plasmopara viticola; with Phytophthora infestans) was at least 80% in each case.
On to `C#Cc1cnc2ccc(OC(SC)C(=O)NC(C)(C)c3noc(C)c3Cl)cc2c1` (stereo not shown) [Compound 54], for which the inhibition at 200 ppm (in the test with Pythium ultimum; in test [1]; with Plasmopara viticola; with Phytophthora infestans) was at least 80% each time.
In the case of `C#Cc1cnc2ccc(OC(OC)C(=O)NC(C)(C)c3ccccn3)cc2c1` (stereo not shown) [Compound 55], the inhibition at 200 ppm (in the test with Pythium ultimum; in test [1]; with Phytophthora infestans) was at least 80% in each case.
On to `C#Cc1cnc2c(C)cc(OC(SC)C(=O)NC(C)(C)c3cccnc3)cc2c1` (stereo not shown) [Compound 56], for which the inhibition at 200 ppm in the test on Pythium ultimum and in the test on Plasmopara viticola was at least 80% in each case.
In the case of `C#Cc1cnc2ccc(OC(SC)C(=O)NC(C)(C)c3cccnc3)cc2c1` (stereo not shown) [Compound 57], the inhibition at 200 ppm in the test on Pythium ultimum is at least 80%.
The same measure, in the same setting: to `C#Cc1cnc2ccc(OC(SC)C(=O)NC(C)(C)c3csc([Si](C)(C)C)n3)cc2c1` (stereo not shown) [Compound 58] belongs at least 80%.
Consider `C#Cc1cnc2ccc(OC(SC)C(=O)NC(C)(C)c3nscc3C(=O)OC)cc2c1` (stereo not shown) [Compound 61], for which the inhibition at 200 ppm in the test with Pythium ultimum and in the test with Plasmopara viticola was at least 80% each time.
Turning to `C#Cc1cnc2ccc(OC(SC)C(=O)NC(C)(C)c3cc(C(=O)OC)sn3)cc2c1` (stereo not shown) [Compound 62, methyl 3-[1-[[2-[(3-ethynyl-6-quinolyl)oxy]-2-methylsulfanyl-acetyl]amino]-1-methyl-ethyl]isothiazole-5-carboxylate], the inhibition at 200 ppm (in the test on Pythium ultimum; in test [1]; in the test with Plasmopara viticola) was at least 80% throughout.
As to `C#Cc1cnc2ccc(OC(SC)C(=O)NC(C)(C)c3nc(C)c(C)s3)cc2c1` (stereo not shown) [Compound 63], the inhibition at 200 ppm (with Pythium ultimum; in test [1]) was at least 80% each time.
With `C#Cc1cnc2ccc(OC(SC)C(=O)NC(C)(C)c3nocc3Br)cc2c1` (stereo not shown) [Compound 64], the inhibition at 200 ppm (with Pythium ultimum; in test [1]; in the test with Plasmopara viticola; in the test on Phytophthora infestans) was at least 80% in each case.
For `CSc1cnc2ccc(OC(SC)C(=O)NC(C)(C)c3nocc3Br)cc2c1` (stereo not shown) [Compound 65], the inhibition at 200 ppm with Pythium ultimum was at least 80%.
Consider `CSc1cnc2ccc(OC(SC)C(=O)NC(C)(C)c3cc(C)on3)cc2c1` (stereo not shown) [Compound 66], for which the inhibition at 200 ppm in the test with Pythium ultimum and with Plasmopara viticola was at least 80% throughout.
For the compound `C#Cc1cnc2c(C)cc(OC(SC)C(=O)NC(C)(C)c3cc(C)on3)cc2c1` (stereo not shown) [Compound 67], the inhibition at 200 ppm (with Pythium ultimum; in test [1]; with Plasmopara viticola; in the test with Phytophthora infestans) was at least 80% each time.
Turning to `C#Cc1cnc2c(F)cc(OC(SC)C(=O)NC(C)(C)c3cc(C)on3)cc2c1` (stereo not shown) [Compound 69], the inhibition at 200 ppm (in the test with Pythium ultimum; in test [1]; in the test on Plasmopara viticola; in the test on Phytophthora infestans) was at least 80% in each case.
For the compound `C#Cc1cnc2cc(F)c(OC(SC)C(=O)NC(C)(C)c3cc(C)on3)cc2c1` (stereo not shown) [Compound 70], in the test on Phytophthora infestans, the inhibition at 200 ppm was at least 80%.
Turning to `CSc1cnc2ccc(OC(SC)C(=O)NC(C)(C)c3cc(Cl)on3)cc2c1` (stereo not shown) [Compound 71], the inhibition at 200 ppm with Pythium ultimum and in the test on Plasmopara viticola was at least 80% each time.
For the compound `C#Cc1cnc2c(C)cc(OC(SC)C(=O)NC(C)(C)c3cc(Cl)on3)cc2c1` (stereo not shown) [Compound 72], the inhibition at 200 ppm in the test on Pythium ultimum, in the test on Plasmopara viticola and in the test on Phytophthora infestans was at least 80% throughout.
As for `CSc1cnc2ccc(OC(SC)C(=O)NC(C)(C)c3nocc3C)cc2c1` (stereo not shown) [Compound 74], the inhibition at 200 ppm in the test with Pythium ultimum was at least 80%.
As for `C#Cc1cnc2c(Cl)cc(OC(SC)C(=O)NC(C)(C)c3nocc3C)cc2c1` (stereo not shown) [Compound 76], the inhibition at 200 ppm in the test with Pythium ultimum, in the test on Plasmopara viticola and in the test with Phytophthora infestans was at least 80% in each case.
For `C#Cc1cnc2c(F)cc(OC(SC)C(=O)NC(C)(C)c3nocc3C)cc2c1` (stereo not shown) [Compound 77], the inhibition at 200 ppm (in the test on Pythium ultimum; in test [1]; with Plasmopara viticola; with Phytophthora infestans) was at least 80% each time.
With `C#Cc1cnc2ccc(OC(SC)C(=O)NCc3ncc(C)s3)cc2c1` (stereo not shown) [Compound 79], the inhibition at 200 ppm (in the test with Pythium ultimum; in test [1]) was at least 80% in each case.
With `C#Cc1cnc2ccc(OC(SC)C(=O)NC(C)(C)c3cc(CC)on3)cc2c1` (stereo not shown) [Compound 82], the inhibition at 200 ppm (in the test with Pythium ultimum; in test [1]; with Plasmopara viticola; in the test with Phytophthora infestans) was at least 80% in each case.
`C#Cc1cnc2ccc(OC(SC)C(=O)NC(C)(C)c3cc(C(F)(F)F)on3)cc2c1` (stereo not shown) [Compound 83]: the inhibition at 200 ppm (in the test with Pythium ultimum; in test [1]; in the test on Plasmopara viticola; in the test with Phytophthora infestans) was at least 80% each time.
In the case of `C#Cc1cnc2c(F)cc(OC(SC)C(=O)NC(C)(C)c3cc(C(F)(F)F)on3)cc2c1` (stereo not shown) [Compound 91], the inhibition at 200 ppm in the test with Plasmopara viticola and with Phytophthora infestans was at least 80% each time.
Consider `C#Cc1cnc2c(Cl)cc(OC(SC)C(=O)NC(C)(C)c3cc(C(F)(F)F)on3)cc2c1` (stereo not shown) [Compound 99], for which the inhibition at 200 ppm in the test with Plasmopara viticola was at least 80%.
As for `COCc1cc(C(C)(C)NC(=O)C(Oc2ccc3ncc(SC)cc3c2)SC)no1` (stereo not shown) [Compound 100], the inhibition at 200 ppm with Pythium ultimum, with Plasmopara viticola and in the test with Phytophthora infestans was at least 80% in each case.
Take `CCc1cc(C(C)(C)NC(=O)C(Oc2ccc3ncc(SC)cc3c2)SC)no1` (stereo not shown) [Compound 103]: the inhibition at 200 ppm with Pythium ultimum and in the test with Plasmopara viticola was at least 80% throughout.
Consider `CSc1cnc2ccc(OC(SC)C(=O)NC(C)(C)c3cc(C(F)(F)F)on3)cc2c1` (stereo not shown) [Compound 104], for which the inhibition at 200 ppm in the test with Pythium ultimum and in the test with Plasmopara viticola was at least 80% in each case.
Take `CSC(Oc1ccc2ncc(I)cc2c1)C(=O)NC(C)(C)c1cc(C(F)(F)F)on1` (stereo not shown) [Compound 108]: the inhibition at 200 ppm in the test on Pythium ultimum and with Plasmopara viticola was at least 80% throughout.
For the compound `CSc1cnc2ccc(OC(SC)C(=O)NC(C)(C)c3cccc(C)n3)cc2c1` (stereo not shown) [Compound 114], the inhibition at 200 ppm in the test with Pythium ultimum was at least 80%.
In the case of `C#Cc1cnc2c(F)cc(OC(SC)C(=O)NCc3nccs3)cc2c1` (stereo not shown) [Compound 115], the inhibition at 200 ppm (with Pythium ultimum; in test [1]) was at least 80% throughout.
On to `CSc1cnc2ccc(OC(SC)C(=O)NCc3nccs3)cc2c1` (stereo not shown) [Compound 118], for which, in the test on Pythium ultimum, the inhibition at 200 ppm is at least 80%.
On to `C#Cc1cnc2c(F)cc(OC(SC)C(=O)NCc3nc(C)cs3)cc2c1` (stereo not shown) [Compound 119], for which the inhibition at 200 ppm (in the test on Pythium ultimum; in test [1]; in the test on Plasmopara viticola) was at least 80% each time.
In the case of `C#Cc1cnc2c(Cl)cc(OC(SC)C(=O)NCc3nc(C)cs3)cc2c1` (stereo not shown) [Compound 120], the inhibition at 200 ppm (with Pythium ultimum; in test [1]; with Plasmopara viticola) was at least 80% each time.
As for `CSc1cnc2ccc(OC(SC)C(=O)NCc3nc(C)cs3)cc2c1` (stereo not shown) [Compound 121], the inhibition at 200 ppm in the test with Pythium ultimum is at least 80%.
Turning to `C#Cc1cnc2c(F)cc(OC(SC)C(=O)NCc3ncc(C)s3)cc2c1` (stereo not shown) [Compound 122], the inhibition at 200 ppm (with Pythium ultimum; in test [1]) was at least 80% throughout.
For `CSC(Oc1cc(C)c2ncc(I)cc2c1)C(=O)NCc1cccnc1` (stereo not shown) [Compound 125], the inhibition at 200 ppm with Pythium ultimum was at least 80%.
On to `CSC(Oc1cc(C)c2ncc(I)cc2c1)C(=O)NCc1ccc(Cl)nc1` (stereo not shown) [Compound 127], for which, in test [1], the inhibition at 200 ppm is at least 80%.
